Tests used:
[1] = system: pan-HDACs (HeLa cell extract); assay: In vitro HDAC enzyme inhibition, HeLa cell nuclear extract (Fluor de Lys); type: biochemical; details: ± margin of error of 95% confidence interval
Source text: (§1) In vitro HDAC enzyme inhibition assays utilized HeLa cell extract for pan-HDACs with the substrate Fluor-Lys following the manufacturer’s protocol (BIOMOL/ENZO, Plymouth Meeting, PA). For isoform assays, purified HDAC1, HDAC3, and HDAC6 recombinant proteins produced by expressing epitope-tagged full-length proteins in the sf9 baculovirus expression vector system were purchased from PBS Bioscience (San Diego, CA). […] The reaction commenced with the addition of HDAC substrate at room temperature and proceeded for 30 minutes. Termination of the reaction was achieved by adding 50 μL of Fluor de Lys (TM) Assay Developer. The fluorophore was excited at 360 nm and emitted light at 460 nm. Relative fluorescence was measured using a FlexStation II plate reader (Molecular Devices, Sunnyvale, CA).

HDAC6 = biological target: T1, HDAC6 (Homo sapiens, UniProt Q9UBN7); assay: In vitro HDAC isoform inhibition, purified recombinant HDAC6; type: biochemical
T1 construct: purchased PBS Bioscience [sic] (San Diego, CA); host or cells: Sf9 insect cells / baculovirus
T1 sequence (Q9UBN7 1-1215): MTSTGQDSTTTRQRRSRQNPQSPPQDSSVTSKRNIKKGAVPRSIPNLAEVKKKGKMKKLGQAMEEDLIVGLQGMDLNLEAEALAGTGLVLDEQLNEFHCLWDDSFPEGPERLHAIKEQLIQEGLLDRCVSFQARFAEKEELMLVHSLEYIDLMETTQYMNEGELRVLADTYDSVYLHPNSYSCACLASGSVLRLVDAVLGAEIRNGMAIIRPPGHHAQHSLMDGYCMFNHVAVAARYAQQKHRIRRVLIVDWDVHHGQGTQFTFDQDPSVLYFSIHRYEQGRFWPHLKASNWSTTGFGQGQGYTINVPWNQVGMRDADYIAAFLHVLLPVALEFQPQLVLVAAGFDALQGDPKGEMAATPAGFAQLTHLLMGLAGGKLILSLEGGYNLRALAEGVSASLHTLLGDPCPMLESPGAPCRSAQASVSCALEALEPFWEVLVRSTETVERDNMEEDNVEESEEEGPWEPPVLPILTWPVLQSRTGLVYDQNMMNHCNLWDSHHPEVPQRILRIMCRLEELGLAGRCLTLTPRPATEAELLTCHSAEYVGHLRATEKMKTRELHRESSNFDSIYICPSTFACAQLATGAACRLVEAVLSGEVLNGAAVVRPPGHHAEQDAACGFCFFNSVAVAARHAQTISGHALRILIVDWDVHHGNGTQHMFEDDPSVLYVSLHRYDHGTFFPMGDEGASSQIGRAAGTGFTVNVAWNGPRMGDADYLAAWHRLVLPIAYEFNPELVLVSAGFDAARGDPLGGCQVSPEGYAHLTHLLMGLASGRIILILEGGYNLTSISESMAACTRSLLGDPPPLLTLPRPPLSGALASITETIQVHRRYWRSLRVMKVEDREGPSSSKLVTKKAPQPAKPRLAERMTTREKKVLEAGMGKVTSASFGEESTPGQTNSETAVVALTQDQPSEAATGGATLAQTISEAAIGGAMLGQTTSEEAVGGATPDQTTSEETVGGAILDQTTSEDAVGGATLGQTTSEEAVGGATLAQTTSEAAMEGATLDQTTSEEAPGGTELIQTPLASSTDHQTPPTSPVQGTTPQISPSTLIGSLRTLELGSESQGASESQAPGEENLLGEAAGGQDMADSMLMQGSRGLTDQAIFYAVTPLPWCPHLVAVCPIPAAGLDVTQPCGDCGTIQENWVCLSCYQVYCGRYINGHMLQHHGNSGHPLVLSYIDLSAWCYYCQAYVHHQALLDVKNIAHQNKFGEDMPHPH
Source text: as §1

[2] = system: ER+ BC cells (MCF-7 and T47D); assay: Cell growth inhibition, ER+ breast cancer cells stated together; type: cell-based
Source text: (§2) Prism-GraphPad software was used to analyze data.

[3] = system: triple negative breast cancer cells; assay: Cell growth inhibition, triple negative breast cancer cells stated together; type: cell-based; details: range over triple negative breast cancer cells; read-out: effective growth inhibition concentrations (EC50)
Source text: as §2

MCF10A cells = assay: Radiation clonogenic survival assay, MCF10A; type: cell-based; details: 0.3 μM for 24 h then graded γ-radiation, control 2.5 Gy
Method: Logarithmically growing cells were treated with vehicle (0.1% Dimethyl Sulfoxide) or SP-1-303 (0.3 μM) for 24 h followed by sham or γ-radiation using a Mark-30 irradiator with a 137Cs source at a fixed dose rate of 2.71 Gy/min. Cells were exposed to graded doses at room temperature. After 10–14 days, cells were fixed and stained with crystal violet, and colonies were counted. The surviving fractions of treated cells were normalized using the plating efficiencies of untreated controls. Radiation survival curves were generated by fitting to the single-hit, multitarget model.

[4] = Plasma pharmacokinetics after intravenous administration; type: in vivo, Sprague-Dawley rats; details: 20 mg/kg IV
Source text: A commercial vendor (Medicilon, Inc.) performed the pharmacokinetic studies. Male Sprague-Dawley Rats (n = 8) were received from Sino-British SIPPR/BK Lab Animal Ltd., Shanghai, and 6 animals were placed on study. All studies were approved by the Institutional Animal Care and Use Committee (Protocol #: 19098–17002) of Medicilon Preclinical Research-Shanghai LLC, Pudong Shanghai 201200, P.R. China. The animals were allowed to acclimatize for at least 5 d before beginning the study. The procedure was performed under general anesthesia with 3–5% isoflurane for blood collections via jugular vein. All efforts were made to minimizing suffering and least stressful. The compound was dissolved in 5% DMSO + 40% PEG400 + 55% PBS to yield a final concentration of 2 mg/ml. The tolerated dose (20 mg/Kg) was administered via intravenous (IV) in rats. After IV administration, blood samples were collected via jugular vein at various time points (0, 1, 2, 4, 6, and 8 h) under general anesthesia with 3–5% isoflurane. Samples were then placed into tubes containing K2EDTA and centrifuged at 8,000 rpm for 6 min to obtain plasma. The resulting plasma were analyzed by LCMS. Following completion of the study, all surviving animals were euthanized with CO2, followed by cervical dislocation. Pharmacokinetic analysis was determined using a non-compartmental module of WinNonlin Professional 5.2. The maximum measured plasma concentrations (Cmax) and the time of Cmax (tmax) were derived directly from the data. The area under the curve (AUC) was calculated using the log-linear trapezoidal method rule up to the last data point and was extrapolated to infinity with the following formula: Clast/β, where Clast is the last measured concentration time point. The elimination half-life was calculated with the equation t1/2 = 0.693/β, where β is the terminal rate constant. The clearance (Cl = dose/AUC) rate was also evaluated.

## Cc1[nH]c2ccccc2c1C1=C(c2c(C)[nH]c3ccccc23)C(=O)N(CCCCCCC(=O)NO)C1=O [SP-1-303]
[1]
  IC50: 120 ± 58 nM
HDAC6
  ratio of inhibitory concentrations for HDAC6 to HDAC1: 36 fold
HDAC6; purified recombinant protein, ± margin of error of 95% confidence interval, read-out: IC50 HDAC inhibition activity in vitro, HDAC 6
  IC50: 435 ± 35 nM
HDAC6; ratio of IC50 values
  Ratio (HDAC6:HDAC1): 36
[2]
  inhibition of ER+ BC cell growth compared to ER- TNBC cell growth: 4-8 fold
[2]; more potent than SAHA
  potency in ER+ cell lines relative to SAHA: 10 fold
[2]; range over MCF-7 and T47D cells, read-out: effective growth inhibition concentrations (EC50)
  EC50: 320 to 340 nM
[3]
  EC50: 1200 to 2500 nM
MCF10A cells
  D0, radiation clonogenic survival: 2.4 Gy
[4]; male, Sprague-Dawley, plasma, rat, mean value, read-out: tmax, time to reach maximum plasma concentration
  Tmax: 4.98 min
[4]; male, Sprague-Dawley, plasma, rat, read-out: t1/2, elimination half-life (converted)
  half-life: 75.6 min
[4]; rat plasma, 4 h
  compound remaining in plasma at 4 h: 1%
[4]; rat
  AUC, area under the curve: 5227.55 ng/ml x h

From publication PMC11249239 (PLOS ONE, 2024)
